# Measurements reported in PMC10114980, “Triple targeting of mutant EGFR^L858R/T790M, COX-2, and 15-LOX: design and synthesis of novel quinazolinone tethered phenyl urea derivatives for anti-inflammatory and anticancer evaluation” (Journal of Enzyme Inhibition and Medicinal Chemistry, 2023).
# Key:
# soybean 15-LOX = target: T1, soybean 15-LOX (Glycine max, UniProt P08170); experiment: 15-LOX inhibitor screening assay (Cayman); type: biochemical; conditions: mean ± SEM, n = 3 replicates
# T1 sequence (P08170 1-839): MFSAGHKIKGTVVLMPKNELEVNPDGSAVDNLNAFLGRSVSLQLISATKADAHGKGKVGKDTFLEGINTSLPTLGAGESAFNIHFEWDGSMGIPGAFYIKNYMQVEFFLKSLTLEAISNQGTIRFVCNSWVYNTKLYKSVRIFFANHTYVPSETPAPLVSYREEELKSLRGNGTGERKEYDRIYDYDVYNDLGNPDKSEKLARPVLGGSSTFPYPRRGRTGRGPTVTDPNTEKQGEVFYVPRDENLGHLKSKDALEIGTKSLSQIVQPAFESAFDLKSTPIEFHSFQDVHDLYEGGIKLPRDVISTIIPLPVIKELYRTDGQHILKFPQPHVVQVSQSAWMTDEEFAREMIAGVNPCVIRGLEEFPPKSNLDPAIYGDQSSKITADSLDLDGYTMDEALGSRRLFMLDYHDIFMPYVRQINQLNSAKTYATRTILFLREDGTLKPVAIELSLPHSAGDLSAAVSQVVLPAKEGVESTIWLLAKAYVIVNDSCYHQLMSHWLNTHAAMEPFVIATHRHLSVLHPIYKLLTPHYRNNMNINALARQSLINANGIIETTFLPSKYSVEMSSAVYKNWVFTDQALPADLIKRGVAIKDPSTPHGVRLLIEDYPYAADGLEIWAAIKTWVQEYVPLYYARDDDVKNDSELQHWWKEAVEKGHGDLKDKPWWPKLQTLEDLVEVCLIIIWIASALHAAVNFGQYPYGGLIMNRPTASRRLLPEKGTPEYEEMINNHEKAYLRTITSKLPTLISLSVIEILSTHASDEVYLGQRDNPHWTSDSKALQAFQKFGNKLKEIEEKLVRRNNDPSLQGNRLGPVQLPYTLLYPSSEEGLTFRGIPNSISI
# [1] = test system: LPS-induced ROS production in RAW 264.7 cells; experiment: ROS production in LPS-activated RAW 264.7 macrophage cells (DCFH-DA); type: cell-based; conditions: LPS-activated RAW 264.7 cells, mean ± SEM, three replicates; for IC50: Mus musculus, RAW264.7
# Experimental: TNF-α and IL-6 production were detected in RAW 264.7 macrophage cell culture supernatants following the induction of inflammation by LPS. Moreover, the probes of oxidative species 2,7-dichlorofluorescein diacetate (DCFH-DA) (Molecular Probes) and NO, 4-amino-5-methylamino-2,7-difluorofluorescein diacetate (DAF-FM diacetate) (Molecular Probes) were used to investigate the antioxidant and NO production inhibitory potential of the test compounds. Briefly, RAW 264.7 cells were cultured in black 96 well plates (200 000 cells/mL, 100 µl/well) for 24 h followed by the incubation with the individual test compounds or the reference drugs at different concentrations (12.5, 25, 50, and 100 µM) for 2 h at 37 °C. LPS was then added at a final concentration of 1 µg/mL for an additional 18 h. The cell culture supernatant was collected from cells treated with the different compounds at 25 µM to measure TNF-α and IL-6 levels (1:10 dilution) using DuoSet ELISA kits (R&D Systems, Minneapolis, MN) following the manufacturer’s instructions. Then, the plates were washed to perform ROS and NO detection assays as detailed in our previous studies[16]^,[27].
# [2] = Cell viability assay against normal cell line (MTS); type: cell-based; conditions: mouse, RAW 264.7 cells, concentrations up to 50 μM, read-out: cell viability percentage of the control values
# Experimental: To evaluate the possible non-selective cytotoxic effect of the investigated compounds (6a, 6c, 6d, 6e, 6j, 6l, 6m, 6n, 6o, and 6p) on normal cells, their effect on RAW 264.7 cells viability was assessed at different concentrations (12.5, 25, 50, and 100 µM). Cell viability was measured using 3-(4,5-dimethylthiazol-2-yl)-5-(3-carboxymethoxyphenyl)-2-(4 sulfophenyl)-2H-tetrazolium (MTS) assay (Promega, Madison, Wisconsin) according to the manufacturer’s instructions.
# K-562 = experiment: NCI single dose screen, K-562; type: cell-based; conditions: Homo sapiens, K562; K-562, leukaemia; single dose 10^−5 M; read-out: growth inhibition percentage
# Experimental: (§1) Screening of the anticancer activity of the newly synthesised compounds (6a, 6c, 6d, 6e, 6j, 6l, 6m, 6n, 6o, and 6p) was performed by the US National Cancer Institute (NCI) using 60 different human tumour cell lines in accordance with standard procedures formerly reported.
# (§2) In vitro anticancer screening was carried out for the selected compounds at a single dose (10^−5 M) against 60 different human tumour cell lines of nine different cancer cell types: leukaemia, lung, colon, CNS, melanoma, ovarian, renal, prostate, and breast cancers.
# NCI-H460 = experiment: NCI single dose screen, NCI-H460; type: cell-based; conditions: Homo sapiens; NCI-H460, non-small cell lung cancer; single dose 10^−5 M; read-out: growth inhibition percentage
# Experimental: as §1, §2
# KM12 = experiment: NCI single dose screen, KM12; type: cell-based; conditions: Homo sapiens; KM12, colon cancer; single dose 10^−5 M; read-out: growth inhibition percentage
# Experimental: as §1, §2
# SW-620 = experiment: NCI single dose screen, SW-620; type: cell-based; conditions: Homo sapiens; SW-620, colon cancer; single dose 10^−5 M; read-out: growth inhibition percentage
# Experimental: as §1, §2
# UACC-257 = experiment: NCI single dose screen, UACC-257; type: cell-based; conditions: Homo sapiens; UACC-257, melanoma; single dose 10^−5 M; read-out: growth inhibition percentage
# Experimental: as §1, §2
# UACC-62 = experiment: NCI single dose screen, UACC-62; type: cell-based; conditions: Homo sapiens; UACC-62, melanoma; single dose 10^−5 M; read-out: growth inhibition percentage
# Experimental: as §1, §2
# NCI/ADR-RES = experiment: NCI single dose screen, NCI/ADR-RES; type: cell-based; conditions: Homo sapiens, ovarian cancer, single dose 10^−5 M, read-out: growth inhibition percentage
# Experimental: as §1, §2
# SK-OV-3 = experiment: NCI single dose screen, SK-OV-3; type: cell-based; conditions: Homo sapiens; SK-OV-3, ovarian cancer; single dose 10^−5 M; read-out: growth inhibition percentage
# Experimental: as §1, §2
# A498 = experiment: NCI single dose screen, A498; type: cell-based; conditions: Homo sapiens; A498, renal cancer; single dose 10^−5 M; read-out: growth inhibition percentage
# Experimental: as §1, §2
# PC-3 = experiment: NCI single dose screen, PC-3; type: cell-based; conditions: Homo sapiens; PC-3, prostate cancer; single dose 10^−5 M; read-out: growth inhibition percentage
# Experimental: as §1, §2
# DU-145 = experiment: NCI single dose screen, DU-145; type: cell-based; conditions: Homo sapiens; DU-145, prostate cancer; single dose 10^−5 M; read-out: growth inhibition percentage
# Experimental: as §1, §2
# MDA-MB-468 = experiment: NCI single dose screen, MDA-MB-468; type: cell-based; conditions: Homo sapiens; MDA-MB-468, breast cancer; single dose 10^−5 M; read-out: growth inhibition percentage
# Experimental: as §1, §2
SMILES,IC50 (soybean 15-LOX),IC50 [1],viability [2],inhibition at 10 µM (K-562),inhibition at 10 µM (NCI-H460),inhibition at 10 µM (KM12),inhibition at 10 µM (SW-620),inhibition at 10 µM (UACC-257),inhibition at 10 µM (UACC-62),inhibition at 10 µM (NCI/ADR-RES),inhibition at 10 µM (SK-OV-3),inhibition at 10 µM (A498),inhibition at 10 µM (PC-3),inhibition at 10 µM (DU-145),inhibition at 10 µM (MDA-MB-468),ROS IC50 [1]
"COc1ccc(NC(=O)NN2C(=O)c3ccccc3N(C)C2c2ccc(OC)cc2)cc1 (stereo not shown) [Compound 6j, 1-(4-Methoxyphenyl)-3-(2-(4-methoxyphenyl)-1-methyl-4-oxo-1,4-dihydroquinazolin-3(2H)-yl)urea]",1.95 ± 0.35 µM,24.1 ± 1.08 µM,> 90%,< 10%,< 10%,< 10%,< 10%,21.9%,< 10%,< 10%,< 10%,< 10%,10.8%,< 10%,< 10%,
"CN1c2ccccc2C(=O)N(NC(=O)Nc2ccccc2)C1c1ccccc1 (stereo not shown) [Compound 6c, 1-(1-Methyl-4-oxo-2-phenyl-1,4-dihydroquinazolin-3(2H)-yl)-3-phenylurea]",1.36 ± 0.19 µM,48.1 ± 1.07 µM,> 90%,< 10%,< 10%,< 10%,< 10%,< 10%,< 10%,< 10%,< 10%,< 10%,< 10%,< 10%,< 10%,
"CN1c2ccccc2C(=O)N(NC(=O)Nc2ccc(F)cc2)C1c1ccccc1 (stereo not shown) [Compound 6m, 1-(4-Fluorophenyl)-3-(1-methyl-4-oxo-2-phenyl-1,4-dihydroquinazolin-3(2H)-yl)urea]",2.23 ± 0.36 µM,57.2 ± 1 µM,> 90%,< 10%,< 10%,< 10%,< 10%,< 10%,20.7%,16.8%,< 10%,< 10%,22.1%,< 10%,< 10%,
"CC1N(NC(=O)Nc2ccc(F)cc2)C(=O)c2ccccc2N1C (stereo not shown) [Compound 6l, 1–(1,2-Dimethyl-4-oxo-1,4-dihydroquinazolin-3(2H)-yl)-3-(4-fluorophenyl)urea]",1.58 ± 0.28 µM,37.9 ± 1 µM,> 90%,< 10%,< 10%,< 10%,< 10%,< 10%,< 10%,< 10%,< 10%,< 10%,< 10%,< 10%,< 10%,
"CN1c2ccccc2C(=O)N(NC(=O)Nc2ccc(F)cc2)C1c1ccc([N+](=O)[O-])cc1 (stereo not shown) [Compound 6o, 1-(4-Fluorophenyl)-3–(1-methyl-2-(4-nitrophenyl)-4-oxo-1,4-dihydroquinazolin-3(2H)-yl)urea]",1.42 ± 0.23 µM,23.4 ± 1.13 µM,> 90%,17.5%,< 10%,< 10%,< 10%,< 10%,27.4%,< 10%,< 10%,< 10%,31%,< 10%,< 10%,
"COc1ccc(C2N(NC(=O)Nc3ccc(F)cc3)C(=O)c3ccccc3N2C)cc1 (stereo not shown) [Compound 6p, 1-(4-Fluorophenyl)-3-(2–(4-methoxyphenyl)-1-methyl-4-oxo-1,4-dihydroquinazolin-3(2H)-yl)urea]",3.87 ± 2.1 µM,38.6 ± 1.33 µM,> 90%,< 10%,< 10%,< 10%,< 10%,< 10%,< 10%,< 10%,< 10%,< 10%,15.2%,< 10%,< 10%,
"CN1c2ccccc2C(=O)N(NC(=O)Nc2ccccc2)C1c1ccc([N+](=O)[O-])cc1 (stereo not shown) [Compound 6e, 1-(1-Methyl-2-(4-nitrophenyl)-4-oxo-1,4-dihydroquinazolin-3(2H)-yl)-3-phenylurea]",1.76 ± 0.27 µM,> 100 µM,> 90%,< 10%,< 10%,< 10%,< 10%,< 10%,< 10%,< 10%,< 10%,< 10%,< 10%,< 10%,< 10%,neither compound 6e nor compound 6g inhibited ROS production significantly
"CN1c2ccccc2C(=O)N(NC(=O)Nc2ccc(F)cc2)C1c1ccc(F)cc1 (stereo not shown) [Compound 6n, 1-(4-Fluorophenyl)-3-(2–(4-fluorophenyl)-1-methyl-4-oxo-1,4-dihydroquinazolin-3(2H)-yl)urea]",2 ± 0.26 µM,39.4 ± 2.25 µM,> 90%,22.1%,< 10%,15.4%,< 10%,< 10%,38.1%,23.2%,22.9%,< 10%,38.1%,< 10%,< 10%,
